Test results taken from patent US9701716B2, “Water buffalo derived dimeric peptide containing proline for antibiotic therapies” (Centaur, Inc., priority 2014, dated 2017).
Like-named read-outs stand apart in the source and are kept apart here. No end group written: not given here.

Key:
Staphylococcus aureus [1] = assay type: cell-based
Experimental: Additional antimicrobial agents were evaluated for antimicrobial activity, including 23 computationally-derived analogues of SEQ ID NO: 3. These analogues were grouped into two functional series, including those synthesized for improved helicity (Table 2; A-P) and those synthesized for enhanced activity (Table 2; IND, Q-T, and W-X). The antimicrobial activity of the synthetic analogues provided in Table 2 were evaluated using standard techniques such as those described in Sang, et al. 2007 Dev. Comp. Immunol., and herein incorporated by reference. […] The additional antimicrobial agent analogs optimized for helical stability in Example 2 (Table 3) were evaluated for antimicrobial activity. The antimicrobial activity of the synthetic analogues provided in Table 3 were evaluated using standard techniques such as those described in Sang, et al. 2007 Dev. Comp. Immunol., and herein incorporated by reference.

Klebsiella pneumoniae = assay type: cell-based
Experimental: (§1) The antimicrobial agents disclosed are derivatives of SEQ. ID. NO.: 3, having 14 amino acids and a broad spectrum of antimicrobial activity. The antimicrobial agents of the disclosure were synthesized and analyzed to evaluate antimicrobial activity. Initially, the antimicrobial agent of SEQ ID NO.: 3 was evaluated for inhibition of clinical isolates of common mastitis pathogens (Table 1).
(§2) The additional antimicrobial agent analogs optimized for helical stability in Example 2 (Table 3) were evaluated for antimicrobial activity. The antimicrobial activity of the synthetic analogues provided in Table 3 were evaluated using standard techniques such as those described in Sang, et al. 2007 Dev. Comp. Immunol., and herein incorporated by reference.
(§3) The antimicrobial activity of SEQ ID NO. 8 was further evaluated against clinical isolates of mastitis-causing bacteria (Table 5).

Staphylococcus aureus [2] = assay type: cell-based; remark: listed apart in the source
Experimental: as §1, §2, §3

[3] = tested on: Streptococcus dysgalactiae; assay type: cell-based
Experimental: as §1, §2, §3

Corynebacterium species = experiment: MIC against clinical isolates of mastitis pathogens; assay type: cell-based; conditions: clinical isolate 404-C18, Corynebacterium species, multidrug resistance ++
Experimental: as §1, §2, §3

Escherichia coli = assay type: cell-based
Experimental: as §2, §3

Staphylococcus aureus [4] = experiment: Mastitis mouse model, CFU in mammary glands; assay type: in vivo, Balb/c mice; conditions: 32 μg per gland intra-mammarily, every 24 hrs for 3 days from 24 hours post-infection; Kruskal-Wallis with Dunn's post-test, 5% level of significance
Experimental: The antimicrobial agent of SEQ ID NO: 8 was evaluated using an in vivo model of bacterial infection to assess the antimicrobial activity of the agent. The following methods and materials were used.
Staphylococcus aureus was isolated from milk from dairy cows with clinical mastitis (Livestock Disease Diagnostic Center, University of Kentucky. Lexington, Ky.). Upon arrival, bacteria were striped on blood agar plates (TSA+5% sheep blood from Remel, Kansas City. Mo.) and cultured at 37° C. for 24 hrs. A fresh single bacterial colony picked from the agar plate was inoculated into 10 ml of Muller Hinton II broth (MHB) and cultured at 37° C. for 4-6 hrs. until reaching an absorbance of 0.8 with a 625 nm spectrophotometer filter. At this absorbance, the MHB has been documented to contain 1×10^5 colony forming units (CFU) in a 50 μl volume.
For the experiment, 56 female Balb/c mice (BW˜[…]) at 7-10 days of lactation were used. Four groups of n=14 mice were used for each experiment as described below. For intramammary inoculation the protocol described by Chandler was followed (J. Med. Microbiol. V3; 273-282: 1970) with minor modifications. […]
All mice were euthanized (using CO2) following the AVMA euthanasia guidelines 24 hours after the last treatment. […] Dilutions (10^−1, 10^−2, and 10^−3) of the homogenates were plated quantitatively to determine the number of CFU per gland. […]

[5] = Staphylococcus aureus, first duplicate
[6] = Staphylococcus aureus, second duplicate

Row | Substance | MIC duplicates (Staphylococcus aureus [1]; [5]) | MIC duplicates (Staphylococcus aureus [1]; [6]) | further results
1 | GLARILLRLLFFRG [WB14-F1, GLARILLRLLFFRG] |  |  | MIC duplicates (Staphylococcus aureus [1]): 8.0,8.0 μg/ml
2 | GLARILLRLLFRFG (Antimicrobial peptide sequence) [WB14-N1, antimicrobial agent optimized for helical stability] | 128,128 μg/ml | 128,128 μg/ml | 
3 | GLARILLRWLFRFG [WB14-N, GLARILLRWLFRFG] |  |  | MIC duplicates (Staphylococcus aureus [1]): 4.0,4.0 μg/ml
4 | GLPWILLRWLFFRG [WB14-A, GLPWILLRWLFFRG] |  |  | MIC (Klebsiella pneumoniae): 25.0 µM; MIC (Staphylococcus aureus [2]): 25.0 µM; MIC [3]: 12.5 µM
5 | GLTRILLRLLLRFG (Antimicrobial peptide sequence) [WB14-O4, antimicrobial agent optimized for helical stability] | 256,256 μg/ml | 256,256 μg/ml | 
6 | GLVRILLRLLFRFG (Antimicrobial peptide sequence) [WB14-O1, antimicrobial agent optimized for helical stability] | 64 µg/mL | 128 µg/mL | 
7 | GLVRILLRLLLRFG (Antimicrobial peptide sequence) [WB14-O2, antimicrobial agent optimized for helical stability] | 256 µg/mL | 128 µg/mL | 
8 | GLVRILLRLLLRFS [WB14-O6, GLVRILLRLLLRFS] |  |  | MIC duplicates (Staphylococcus aureus [1]): >256, >256 μg/ml
9 | GLVRILLRLLLRYG (Antimicrobial peptide sequence) [WB14-O5, antimicrobial agent optimized for helical stability] | 64 µg/mL | 128 µg/mL | 
10 | H-GLARILLRWLFFRG-OH [WB14-F, GLARILLRWLFFRG] |  |  | MIC (Corynebacterium species): 16.0 µg/mL; MIC (Klebsiella pneumoniae): 16.0 µg/mL; MIC [3]: 8.0 µg/mL; MIC (Escherichia coli): 4.0 µg/mL; antimicrobial activity compared with other peptides (in words) (Staphylococcus aureus [1]; Staphylococcus aureus MIC comparison): most efficacious antimicrobial synthetic peptide; colony forming units (CFU) per mammary gland versus control groups (Staphylococcus aureus [4]): a difference between the WB-14F versus the three control groups
11 | SLVRILLRLLLRFG (Antimicrobial peptide sequence) [WB14-O3, antimicrobial agent optimized for helical stability] | 128,128 μg/ml | 128,128 μg/ml | 
